Reference: PMC3655043, “Functional expression of a blood tolerant laccase in Pichia pastoris” (BMC Biotechnology, 2013)

Molecular target: T1, ChU-B laccase (blood-tolerant ChU-B mutant of PM1 laccase) (basidiomycete PM1, UniProt Q12571, F417I/F475E, form not given)
T1 construct: directed-evolution variant; alpha-factor evolved prepro-leader processed, extra N-terminal ETEAEF kept (ETEAEFSIGP...); secreted by Pichia pastoris X-33; 53,939 Da calculated, 62,541 Da glycosylated
Test: steady-state kinetics, absorbance […] nm
Assay type: biochemical
Details: pH 5.0; enzyme from P. pastoris; read-out: ChU-B fromP. pastoris / Km

T1 sequence (Q12571 entry or part of it F417I/F475E, form open): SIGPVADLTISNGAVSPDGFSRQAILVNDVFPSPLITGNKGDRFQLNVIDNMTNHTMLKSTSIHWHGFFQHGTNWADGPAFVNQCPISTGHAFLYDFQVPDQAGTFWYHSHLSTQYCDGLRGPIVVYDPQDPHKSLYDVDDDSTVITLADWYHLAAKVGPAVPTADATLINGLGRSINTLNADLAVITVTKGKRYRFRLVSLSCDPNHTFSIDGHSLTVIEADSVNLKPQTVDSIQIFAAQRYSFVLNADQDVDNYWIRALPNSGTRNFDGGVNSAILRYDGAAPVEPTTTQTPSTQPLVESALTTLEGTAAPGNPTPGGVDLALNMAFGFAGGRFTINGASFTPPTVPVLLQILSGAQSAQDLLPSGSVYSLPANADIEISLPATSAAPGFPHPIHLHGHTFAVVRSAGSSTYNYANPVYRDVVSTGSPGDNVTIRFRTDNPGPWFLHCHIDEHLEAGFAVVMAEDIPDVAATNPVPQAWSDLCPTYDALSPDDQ

Compound: COc1cccc(OC)c1O [DMP]
- Km: 1910 ± 50 µM
